Ends that are not written are not given here.
What was measured:
[1] = test system: Aβo-induced Ca2+ influx in mouse primary neurons; assay: Aβ42 oligomer-induced Ca2+ influx, Fluo 4-AM (Fig 3A, 3B, 4A, 4D, EV2A, EV2B); format: cell-based; settings: neurons div 14, Aβo 5.2 μM
[2] = test system: Ca2+ influx in mouse primary neurons; assay: Ca2+ influx after CaCl2 administration in Ca2+-depleted medium, Fluo 4-AM (Fig 3C, 3D, 4C); format: cell-based; settings: neurons div 11–14, CaCl2 2 mM, D-AP5 5, 50 and 200 μM; AUC 5–14 min; n = 6
Description: All animal studies were conducted in compliance with the ARRIVE guidelines. The mouse study was approved by the Animal Studies Committee of Hokkaido University (#18‐0168). WT C57BL/6J (CLEA, Japan, Inc), Alcβ‐KO (RBRC11514) (Gotoh et al, [2020]), App ^ NL‐F/NL‐F (RBRC06343), and App ^ NL‐G‐F/NL‐G‐F (RBRC06344) (Saito et al, [2014]) mice were housed in specific pathogen‐free (SPF) conditions with a microenvironment vent system (Allentown Inc., Allentown, NJ, USA) under a 12 h/12 h light/dark cycle with free access to food and water. Three to five male or female siblings were housed in each cage; cages were equipped with microbarrier tops. All experimental procedures with Cynomolgus monkeys were approved by the Animal Care and Use Committee of Shiga University of Medical Science and were carried out in accordance with approved guidelines (Nishimura et al, [2012]). Stored frozen pieces of the cerebral cortex of monkeys were used. Sprague–Dawley rats (8‐week‐old) were purchased from Japan SLC Inc. (Hamamatsu, Japan) and housed with their littermates. […] All animal protocols and related experiments were approved by the Ethics Committees of the Central Research Laboratory at Hamamatsu Photonics and Hamamatsu University School of Medicine. […]

[3] = test system: mitochondrial activity; settings: ref Singh et al, 2017; cited from earlier work
Excerpt: Therefore, we would like to re‐emphasize that the function of p3‐Alcβ is to increase neuronal viability and to protect neurons against Aβ‐induced toxicity, and that the target of p3‐Alcβ may not directly be Aβ peptide and Aβ aggregates/plaques. This property of p3‐Alcβ as a druggable candidate for AD therapy is likely to be distinct from immunotherapies that use anti‐Aβ antibodies. Furthermore, the fu ...

[4] = WT mice, s.c. injection 5 mg/kg, n = 4 per time point
Excerpt: IgG was purified with antigen‐coupled resin and conjugated to biotin. Horseradish peroxidase‐conjugated streptavidin was purchased from Amersham/GE Healthcare (Cat #RPN1051, Little Chalfont, UK), and the tetramethyl benzidine (TMB) microwell peroxidase substrate system was obtained from SeraCare Life Sciences Inc. (Cat #5120‐0075, Milford, MA, USA). Mice were then anesthetized with 1% isoflurane, CSF was collected from the cisterna magna as described previously (Liu & Duff, [2008]), and mice were then sacrificed. […] The sensitivity of this ELISA is equivalent to that of other sELISA systems used to quantify p3‐Alcβ37 and p3‐Alcβ40 (Hata et al, [2019]). Antiserum diluted 1:10,000 was used as a capture antibody in the sELISA. The antibody was affinity‐purified with antigen‐coupled resin, and biotin‐labeled IgG was then used as the detection antibody.

[5] = Alcβ-KO mice, subcutaneous administration

## NC(CCCP(=O)(O)O)C(=O)O (stereo not drawn) [D‐AP5]
[1]; D-AP5 50 μM, AUC 5–29 min, n = 4
  Aβo-induced Ca2+ entry with NMDA antagonist (Fig 4A): suppressed
[1]; p3-Alcβ9-19 50 μM or D-AP5 50 μM, AUC 5–28 min, n = 12
  suppression of Aβo-triggered Ca2+ influx, single agents (Fig 4D): suppressed significantly
[2]
  Ca2+ influx after Ca2+ administration with D-AP5 (Fig 4C): slightly, but not significantly, reduced

## CC12CC3CC(C)(C1)CC(N)(C3)C2 [memantine]
[3]
  mitochondrial activity: does not increase mitochondrial activity

## HRGHQPPPEMA [p3‐Alcβ9‐19]
[4]
  transfer into the brain, p3-Alcβ9-19 levels in CSF by sELISA: successful transfer

## VLSSQQFLHRGHQPPPEMAGHSLASSHRNSMIPSAAT [p3‐Alcβ37]
[5]
  transport into the brain: transported into the brain

— publication PMC10165357, “Brain p3‐Alcβ peptide restores neuronal viability impaired by Alzheimer's amyloid β‐peptide” (EMBO Molecular Medicine, 2023)
